What follows are molecules tested against TXK (Homo sapiens (Human), UniProt P42681) (assay: Kinase inhibition assay (Nanosyn, microfluidic detection), TXK). Conditions: 1 mM ATP, 3 hours at 25° C.
Chain of TXK (P42681 whole entry): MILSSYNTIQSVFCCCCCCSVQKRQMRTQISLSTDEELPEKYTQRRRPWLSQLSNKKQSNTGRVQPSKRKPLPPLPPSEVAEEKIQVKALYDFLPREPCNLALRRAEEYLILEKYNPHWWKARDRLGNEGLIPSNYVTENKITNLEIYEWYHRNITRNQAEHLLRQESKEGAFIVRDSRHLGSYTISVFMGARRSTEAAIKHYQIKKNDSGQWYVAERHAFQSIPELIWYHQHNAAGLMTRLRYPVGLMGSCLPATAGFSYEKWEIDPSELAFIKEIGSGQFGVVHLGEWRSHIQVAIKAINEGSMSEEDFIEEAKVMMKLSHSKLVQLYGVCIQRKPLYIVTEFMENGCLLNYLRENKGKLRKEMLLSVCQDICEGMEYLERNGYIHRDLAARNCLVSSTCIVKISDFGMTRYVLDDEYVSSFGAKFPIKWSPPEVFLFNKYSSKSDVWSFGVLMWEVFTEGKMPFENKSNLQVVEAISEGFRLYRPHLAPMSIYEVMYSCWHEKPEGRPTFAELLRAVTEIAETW
Type: biochemical
Description: The in vitro kinase assays were performed at Nanosyn (Santa Clara, Calif.) utilizing microfluidic detection technology. The test compounds were serially pre-diluted in DMSO and added, by the acoustic dispensing (Labcyte® 550), directly to 384 well assay plates into 10 uL of a buffer with enzyme (ITK, TXK, BTK or TEC) comprising: 100 mM HEPES, pH7.5, 5 mM MgCl2, 0.1% bovine serum albumin, 1 mM DTT, 0.01% Triton X-100 and the enzyme. Final DMSO concentration was maintained at 1% in all samples, including the controls. The reactions were initiated by addition of ATP (1 mM final concentration) and the fluorescently labeled peptide substrate to a final concentration of 1 uM, and incubated for 3 hours at 25° C. Following incubation, the reactions were quenched by addition of 40 μL of termination buffer (100 mM HEPES, pH7.5, 0.01% Triton X-100, 50 mM EDTA). Terminated plates were analyzed using Caliper LabChip® 3000 microfluidic electrophoresis instrument (Caliper Life Sciences/Perkin Elmer). […] As substrate and product are separated by electrophoresis, two peaks of fluorescence are observed. Change in the relative fluorescence intensity of the substrate and product peaks was the parameter measured, reflecting enzyme activity. In the presence of inhibitor, the ratio between product and substrate is altered: signal of the product decreases, while the signal of the substrate increases. Activity in each test sample was determined as the product to sum ratio (PSR): P/(S+P), where P is the peak height of the product and S is the peak height of the […]. For each compound, enzyme activity was measured at 12 concentrations spaced by 3× dilution intervals. Negative control samples (0%-inhibition in the absence of inhibitor, DMSO only) and positive control samples (100%-inhibition, in the absence of enzyme or in the presence of control inhibitor) were assembled in replicates of four and were used to calculate %-inhibition values in the presence of compounds. Percent inhibition (Pinh) was determined using the following equation: Pinh=(PSR0%−PSRinh)/(PSR0%−PSR100%)*100, where PSRinh is the product sum ratio in the presence of inhibitor, PSR0% is the product sum ratio in the absence of inhibitor and PSR100% is the product sum ratio in 100%-inhibition control samples. To determine IC50 values, the inhibition curves (Pinh versus inhibitor concentration) were fitted by 4 parameter sigmoid dose-response model using XLfit software (IDBS).
`C=CC(=O)N1CC[C@]2(C1)C[C@H](n1c(NC(=O)c3ccc(-c4cnco4)s3)nc3cc(N(C)C(=O)C4CC4)ccc31)C2` [Compound 52] gave an IC50 of 0.39 nM.
`C=CC(=O)N1CC[C@]2(C1)C[C@H](n1c(NC(=O)c3ccc(C(=O)Nc4cccnc4)s3)nc3ccccc31)C2` [Compound 85] gave an IC50 of 3.15 nM.
For `C=CC(=O)N1CC[C@]2(C1)C[C@H](n1c(NC(=O)c3ccc(=O)[nH]c3)nc3ccccc31)C2` [Compound 83], the IC50 was 1.98 nM.
In the case of `C=CC(=O)N1CC[C@]2(C1)C[C@H](n1c(NC(=O)c3ccc(-c4cnco4)s3)nc3cc(CN4CCCC4)ccc31)C2` [Compound 40], the IC50 is reported as 0.72 nM.
For `C=CC(=O)N1CC[C@]2(C1)C[C@@H](n1c(NC(=O)c3ccc(-c4cnco4)s3)nc3c(F)cccc31)C2` [Compound 67], the IC50 was 19.7 nM.
Molecule `C=CC(=O)N1CC[C@]2(C1)C[C@@H](n1c(NC(=O)c3ccc(-c4cnco4)s3)nc3cc(Cl)ccc31)C2` [Compound 71] has an IC50 of 17.9 nM.
`C=CC(=O)N1CC[C@]2(C1)C[C@H](n1c(NC(=O)c3ccc(-c4noc(C)n4)s3)nc3ccccc31)C2` [Compound 93] gave an IC50 of 9.88 nM.
For `C=CC(=O)N1CCC[C@]2(C1)C[C@@H](n1c(NC(=O)c3ccc(C(F)F)s3)nc3cc(CN[C@@H](C)C(C)(C)C)ccc31)C2` [Compound 10], the IC50 was 0.84 nM.
`C=CC(=O)N1CC[C@]2(C1)C[C@@H](n1c(NC(=O)c3ccc(-c4cnco4)s3)nc3ccc(Cl)cc31)C2` [Compound 69] gave an IC50 of 7.71 nM.
Work on `C=CC(=O)N1CC[C@]2(C1)C[C@H](n1c(NC(=O)c3ccc(C(=O)N4CCOCC4)s3)nc3ccccc31)C2` [Compound 91] yielded an IC50 of 17.6 nM.
With `C=CC(=O)N1CC[C@]2(C1)C[C@H](n1c(NC(=O)c3ccc(-c4nc(C)no4)s3)nc3ccccc31)C2` [Compound 92] the IC50 was 64.3 nM.
Molecule `C=CC(=O)N1CC[C@]2(C1)C[C@H](n1c(NC(=O)c3ccc(-c4cnco4)s3)nc3ccc(CO)cc31)C2` [Compound 73] has an IC50 of 0.26 nM.
`C=CC(=O)N1CC[C@]2(C1)C[C@H](n1c(NC(=O)c3ccc(NC(=O)C4CCCC4)s3)nc3ccccc31)C2` [Compound 106] showed an IC50 of 30.1 nM.
`C=CC(=O)N1CCC[C@]2(C1)C[C@H](n1c(NC(=O)c3ccc(C(F)F)s3)nc3cc(CN[C@@H](C)C(C)(C)C)ccc31)C2` [Compound 9] gave an IC50 of 0.2 nM.
Molecule `C=CC(=O)N1CC[C@]2(C1)C[C@H](n1c(NC(=O)c3ccc(-c4cncnc4)s3)nc3cc(CO)ccc31)C2` [Compound 148] has an IC50 of 0.69 nM.
`C=CC(=O)N1CC[C@]2(C1)C[C@H](n1c(NC(=O)c3ccc(-c4cnco4)s3)nc3c(OC)cccc31)C2` [Compound 87] gave an IC50 of 5.72 nM.
`C=CC(=O)N1CC[C@]2(C1)C[C@H](n1c(NC(=O)c3ccc(-c4cccc(C#N)c4)s3)nc3ccccc31)C2` [Compound 122] showed an IC50 of 1.22 nM.
`C=CC(=O)N1CC[C@]2(C1)C[C@H](n1c(NC(=O)c3ccc(-c4ccc(C#N)cc4)s3)nc3ccccc31)C2` [Compound 118] showed an IC50 of 7.31 nM.
With `C=CC(=O)N1CC[C@]2(C1)C[C@H](n1c(NC(=O)c3ccc(C(=O)N4CCCC4)s3)nc3ccccc31)C2` [Compound 102] the IC50 was 5.63 nM.
With `C=CC(=O)N1CC[C@]2(C1)C[C@H](n1c(NC(=O)c3ccc(N4CCCC4=O)s3)nc3ccccc31)C2` [Compound 121] the IC50 was 5.48 nM.
Work on `C=CC(=O)N1CC[C@]2(C1)C[C@H](n1c(NC(=O)c3ccc(C(=O)OC)s3)nc3ccccc31)C2` [Compound 98] yielded an IC50 of 0.31 nM.
`C=CC(=O)N1CC[C@]2(C1)C[C@@H](n1c(NC(=O)c3ccc(C(F)F)s3)nc3ccccc31)C2` [Compound 17] was tested, and the IC50 was 11 nM.
For `C=CC(=O)N1CC[C@]2(C1)C[C@H](n1c(NC(=O)c3ccc(NC(=O)c4cccnc4)s3)nc3ccccc31)C2` [Compound 111], the IC50 was 64.1 nM.

Each molecule was assayed against BTK (Homo sapiens (Human), UniProt Q06187) (assay: Kinase inhibition assay (Nanosyn, microfluidic detection), BTK). Conditions: 1 mM ATP, 3 hours at 25° C.
Chain of BTK (Q06187 whole entry): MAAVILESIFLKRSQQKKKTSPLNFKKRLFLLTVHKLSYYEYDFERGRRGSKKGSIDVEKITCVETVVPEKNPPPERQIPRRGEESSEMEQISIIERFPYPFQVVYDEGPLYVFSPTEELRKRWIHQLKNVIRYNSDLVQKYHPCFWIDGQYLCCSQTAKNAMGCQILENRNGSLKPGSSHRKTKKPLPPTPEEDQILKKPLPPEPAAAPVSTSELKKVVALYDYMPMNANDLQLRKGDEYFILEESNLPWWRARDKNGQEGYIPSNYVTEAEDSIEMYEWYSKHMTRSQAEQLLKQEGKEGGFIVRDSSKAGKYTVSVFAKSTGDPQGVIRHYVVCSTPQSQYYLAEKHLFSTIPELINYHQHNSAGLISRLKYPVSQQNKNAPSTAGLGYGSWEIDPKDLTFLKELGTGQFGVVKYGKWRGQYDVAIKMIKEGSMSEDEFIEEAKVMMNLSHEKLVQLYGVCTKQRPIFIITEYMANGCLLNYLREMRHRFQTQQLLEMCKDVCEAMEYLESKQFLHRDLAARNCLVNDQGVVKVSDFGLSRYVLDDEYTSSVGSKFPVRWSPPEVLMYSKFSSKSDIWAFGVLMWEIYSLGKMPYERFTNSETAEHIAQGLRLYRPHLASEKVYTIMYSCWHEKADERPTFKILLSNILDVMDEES
Type: biochemical
Description: The in vitro kinase assays were performed at Nanosyn (Santa Clara, Calif.) utilizing microfluidic detection technology. The test compounds were serially pre-diluted in DMSO and added, by the acoustic dispensing (Labcyte® 550), directly to 384 well assay plates into 10 uL of a buffer with enzyme (ITK, TXK, BTK or TEC) comprising: 100 mM HEPES, pH7.5, 5 mM MgCl2, 0.1% bovine serum albumin, 1 mM DTT, 0.01% Triton X-100 and the enzyme. Final DMSO concentration was maintained at 1% in all samples, including the controls. The reactions were initiated by addition of ATP (1 mM final concentration) and the fluorescently labeled peptide substrate to a final concentration of 1 uM, and incubated for 3 hours at 25° C. Following incubation, the reactions were quenched by addition of 40 μL of termination buffer (100 mM HEPES, pH7.5, 0.01% Triton X-100, 50 mM EDTA). Terminated plates were analyzed using Caliper LabChip® 3000 microfluidic electrophoresis instrument (Caliper Life Sciences/Perkin Elmer). The enzymatic modification of the peptide substrate (phosphorylation) results in a change of net charge enabling electrophoretic separation of product from substrate. As substrate and product are separated by electrophoresis, two peaks of fluorescence are observed. Change in the relative fluorescence intensity of the substrate and product peaks was the parameter measured, reflecting enzyme activity. In the presence of inhibitor, the ratio between product and substrate is altered: signal of the product decreases, while the signal of the substrate increases. Activity in each test sample was determined as the product to sum ratio (PSR): P/(S+P), where P is the peak height of the product and S is the peak height of the […]. For each compound, enzyme activity was measured at 12 concentrations spaced by 3× dilution intervals. Negative control samples (0%-inhibition in the absence of inhibitor, DMSO only) and positive control samples (100%-inhibition, in the absence of enzyme or in the presence of control inhibitor) were assembled in replicates of four and were used to calculate %-inhibition values in the presence of compounds. Percent inhibition (Pinh) was determined using the following equation: Pinh=(PSR0%−PSRinh)/(PSR0%−PSR100%)*100, where PSRinh is the product sum ratio in the presence of inhibitor, PSR0% is the product sum ratio in the absence of inhibitor and PSR100% is the product sum ratio in 100%-inhibition control samples. To determine IC50 values, the inhibition curves (Pinh versus inhibitor concentration) were fitted by 4 parameter sigmoid dose-response model using XLfit software (IDBS).
Molecule `C=CC(=O)N1CC[C@]2(C1)C[C@H](n1c(NC(=O)c3ccc(-c4cnco4)s3)nc3cc(N(C)C(=O)C4CC4)ccc31)C2` [Compound 52] has an IC50 of 0.58 nM.
`C=CC(=O)N1CC[C@]2(C1)C[C@H](n1c(NC(=O)c3ccc(=O)[nH]c3)nc3ccccc31)C2` [Compound 83] gave an IC50 of 7.55 nM.
With `C=CC(=O)N1CC[C@]2(C1)C[C@H](n1c(NC(=O)c3ccc(-c4cnco4)s3)nc3cc(CN4CCCC4)ccc31)C2` [Compound 40] the IC50 was 1.16 nM.
Molecule `C=CC(=O)N1CC[C@]2(C1)C[C@@H](n1c(NC(=O)c3ccc(-c4cnco4)s3)nc3c(F)cccc31)C2` [Compound 67] has an IC50 of 99.2 nM.
Molecule `C=CC(=O)N1CC[C@]2(C1)C[C@H](n1c(NC(=O)c3ccc(-c4cnco4)s3)nc3cc(CN[C@@H](C)C(C)(C)C)ccc31)C2` [Compound 4] has an IC50 of 0.64 nM.
For `C=CC(=O)N1CC[C@]2(C1)C[C@H](n1c(NC(=O)c3ccc(-c4cnco4)s3)nc3cc(CNCC(C)(C)CO)ccc31)C2` [Compound 44], the IC50 was 0.66 nM.
In the case of `C=CC(=O)N1CC[C@]2(C1)C[C@H](n1c(NC(=O)c3ccc(-c4cnco4)s3)nc3cc(F)ccc31)C2` [Compound 57], the IC50 is reported as 1.09 nM.
For `C=CC(=O)N1CC[C@]2(C1)C[C@H](n1c(NC(=O)c3ccc(-c4cncc(N)c4)s3)nc3ccccc31)C2` [Compound 128], the IC50 was 0.63 nM.
`C=CC(=O)N1CC[C@]2(C1)C[C@H](n1c(NC(=O)c3ccc(C(F)F)s3)nc3cc(CN[C@@H](C)C(C)(C)C)ccc31)C2` [Compound 2] was tested, and the IC50 was 1.01 nM.
In the case of `C=CC(=O)N1CC[C@]2(C1)C[C@H](n1c(NC(=O)c3ccc(-c4ccnc(N)n4)s3)nc3ccccc31)C2` [Compound 138], the IC50 is reported as 0.41 nM.
`C=CC(=O)N1CC[C@]2(C1)C[C@H](n1c(NC(=O)c3ccc(C(F)F)s3)nc3cc(CNCC(C)(C)CO)ccc31)C2` [Compound 37] showed an IC50 of 0.95 nM.
In the case of `C=CC(=O)N1CC[C@]2(C1)C[C@H](n1c(NC(=O)c3ccc(-c4ccnc(C)n4)s3)nc3ccccc31)C2` [Compound 149], the IC50 is reported as 0.68 nM.
Work on `C=CC(=O)N1CC[C@]2(C1)C[C@H](n1c(NC(=O)c3ccc(C(F)F)s3)nc3cc(CN4CCOCC4)ccc31)C2` [Compound 27] yielded an IC50 of 2.59 nM.
`C=CC(=O)N1CC[C@]2(C1)C[C@@H](n1c(NC(=O)c3ccc(C(F)F)s3)nc3cc(CN[C@@H](C)C(C)(C)C)ccc31)C2` [Compound 3] showed an IC50 of 26.8 nM.
`C=CC(=O)N1CC[C@]2(C1)C[C@H](n1c(NC(=O)c3ccc(-c4cc[nH]c(=O)c4)s3)nc3ccccc31)C2` [Compound 97] was tested, and the IC50 was 0.33 nM.
Work on `C=CC(=O)N1CC[C@]2(C1)C[C@H](n1c(NC(=O)c3ccc(C(F)(F)CO)s3)nc3ccccc31)C2` [Compound 130] yielded an IC50 of 1.06 nM.
`C=CC(=O)N1CC[C@]2(C1)C[C@H](n1c(NC(=O)c3cncs3)nc3cc(CN[C@@H](C)C(C)(C)C)ccc31)C2` [Compound 13] gave an IC50 of 1.8 nM.
Molecule `C=CC(=O)N1CC[C@]2(C1)C[C@@H](n1c(NC(=O)c3ccc(-c4cnco4)s3)nc3cc(F)ccc31)C2` [Compound 68] has an IC50 of 41.9 nM.
For `C=CC(=O)N1CC[C@]2(C1)C[C@H](n1c(NC(=O)c3ccc(C#N)cc3)nc3cc(CN[C@@H](C)C(C)(C)C)ccc31)C2` [Compound 19], the IC50 was 1.34 nM.
In the case of `C=CC(=O)N1CC[C@]2(C1)C[C@H](n1c(NC(=O)c3ccns3)nc3cc(CN[C@@H](C)C(C)(C)C)ccc31)C2` [Compound 25], the IC50 is reported as 0.7 nM.
`C=CC(=O)N1CC[C@]2(C1)C[C@H](n1c(NC(=O)c3ccc(C(C)(F)F)s3)nc3ccccc31)C2` [Compound 30] gave an IC50 of 2.11 nM.
`C=CC(=O)N1CC[C@]2(C1)C[C@H](n1c(NC(=O)c3ccc(-c4ccnc(NC)c4)s3)nc3ccccc31)C2` [Compound 131] was tested, and the IC50 was 0.46 nM.
With `C=CC(=O)N1CC[C@]2(C1)C[C@H](n1c(NC(=O)c3ccc(-c4cnco4)s3)nc3cc(CN[C@H]4CC[C@H](O)CC4)ccc31)C2` [Compound 42] the IC50 was 0.53 nM.

Source: US10752615B2, “Spirocyclic containing compounds and pharmaceutical uses thereof” (GB005, Inc., priority 2016, dated 2020)
